Data taken from US11938121B2, “Treatment of infections and biofilm formation using a cellulose synthase inhibitor” (Purdue Research Foundation, priority 2020, dated 2024).

Legend:
Komagataeibacter xylinus [1] = test: K. xylinus cell growth on HS solid medium; type: cell-based; conditions: 6 days
Description: Based on primary protein sequence analysis and a comparison of three-dimensional protein structures, the catalytic sites of cellulose synthases are highly conserved across kingdoms (Huang et al., 2020, Purushotham et al., 2020). The amino acids that are directly involved in glucan chain initiation, elongation, and translocation are conserved between plant and bacterial cellulose synthases (Huang et al., 2020). Based on the conservation of catalytic sites in cellulose synthases, we hypothesized that ES20 and ES20-1 would inhibit bacterial cellulose biosynthesis as well. We chose to test the effects of ES20 and ES20-1 on cell growth and cellulose production in Komagataeibacter xylinus (K. xylinus, previously known as Gluconacetobacter xylinus) because this bacterium produces abundant cellulose. We first tested whether ES20 and ES20-1 affect K. xylinus cell growth. We grew K. xylinus cells in liquid […] (HS) medium and then we inoculated 20 μL of series diluted culture to HS solid growth medium supplemented with DMSO (0.1%) or different concentrations of ES20 and ES20-1. […] We found ES20 and ES20-1 affect K. xylinus colony morphology as well. […] Wrinkles radiating structure is often observed in cellulose-producing bacteria strains and this structure is often affected when cellulose biosynthesis is disrupted.
Komagataeibacter xylinus (previously named Gluconacetobacter xylinus) ATCC strain 700178 was obtained from ATCC (Manassas, Va., USA) to evaluate cellulose production. HS (Hestrin and Schramm) medium was used for culture; HS liquid medium contains 2.0% glucose (w/v), 0.5% yeast extract (w/v), 0.5% peptone (w/v), 0.27% Na2HPO4 (w/v), and 0.15% citric acid (w/v), pH 5.0, and HS solid medium was solidified with 1.8% agar (w/v). To prepare the initial inoculation source, a single K. xylinus colony grown on HS solid medium was transferred to HS liquid medium and cultured at 26° C. for 5 days under static conditions. We used cells from the bottom of the liquid culture as the initial inoculation source to avoid biofilm aggregates at the air-liquid interface. To test the effect of ES20 and ES20-1 on the bacteria growth, initial inoculation source was series diluted and 20 μL culture from each diluted solution was dropped on HS solid medium supplemented with DMSO (0.1%) or different concentrations of ES20 and ES20-1 and cultured at 26° C. for 6 days after the dropped culture was completely dry. To test the effects of ES20 and ES20-1 on cellulose production, the prepared inoculation source was inoculated at a dilution ratio of 1:1000 dilution in HS liquid medium supplemented with 0.1% DMSO or 20 μM of ES20 or ES20-1. Static cultivation was carried out in a 26° C. incubator, and agitated cultivation was carried out at 26° C. with shaking at 220 rpm. […]

maize (Zea mays) = test: Maize seedling root growth; type: in vivo; conditions: 20 μM, 6-day-old seedlings
Description: (§1) ES20 has broad spectrum inhibitory effect on the growth of both dicotyledonous and monocotyledonous plants (Huang and Zhang, Plant Signal Behav. 2020, 15, 1780039). We tested whether ES20-1 has stronger inhibitory effect on the growth of monocotyledon plants than ES20. We grew rice (Oryza sativa) and maize (Zea mays) seedlings on the same concentrations of ES20 and ES20-1 and compared their effects on growth.

Arabidopsis Col-0 [2] = conditions: 1 μM; cited from earlier work
[3] = tested on: AtCESA6 (cesa6 alleles es20r1-es20r15); conditions: Huang et al., 2020; cited from earlier work
rice (Oryza sativa) = test: Rice seedling root growth; type: in vivo; conditions: 20 μM, 6-day-old seedlings
Description: as §1

Arabidopsis Col-0 [4] = test: Crystalline cellulose content measurement of cell wall; type: in vivo, Arabidopsis thaliana; conditions: 1 μM, 7-day-old dark-grown seedlings
Description: Arabidopsis Col-0 seeds were sown on growth medium supplemented with 0.1% DMSO, 1 μM ES20, or different concentrations of ES20 analogs. […] Cellulose extraction and measurement were performed as previously described (Huang et al., 2020).

Komagataeibacter xylinus [5] = test: K. xylinus cellulose production in liquid culture; type: cell-based; conditions: 20 μM
Description: We next grew K. xylinus cells in growth medium supplemented with DMSO, ES20, or ES20-1 under agitation. […] We also grew K. xylinus in liquid medium supplemented with DMSO, ES20, or ES20-1 under static cultivation conditions. Without agitation, pellicles containing cellulose often form at the air-liquid interface. […] To quantify the effects of ES20 and ES20-1 on cellulose production, we harvested the pellicles from these cultures and isolated cellulose from the pellicles.
Komagataeibacter xylinus (previously named Gluconacetobacter xylinus) ATCC strain 700178 was obtained from ATCC (Manassas, Va., USA) to evaluate cellulose production. HS (Hestrin and Schramm) medium was used for culture; HS liquid medium contains 2.0% glucose (w/v), 0.5% yeast extract (w/v), 0.5% peptone (w/v), 0.27% Na2HPO4 (w/v), and 0.15% citric acid (w/v), pH 5.0, and HS solid medium was solidified with 1.8% agar (w/v). To prepare the initial inoculation source, a single K. xylinus colony grown on HS solid medium was transferred to HS liquid medium and cultured at 26° C. for 5 days under static conditions. We used cells from the bottom of the liquid culture as the initial inoculation source to avoid biofilm aggregates at the air-liquid interface. To test the effect of ES20 and ES20-1 on the bacteria growth, initial inoculation source was series diluted and 20 μL culture from each diluted solution was dropped on HS solid medium supplemented with DMSO (0.1%) or different concentrations of ES20 and ES20-1 and cultured at 26° C. for 6 days after the dropped culture was completely dry. To test the effects of ES20 and ES20-1 on cellulose production, the prepared inoculation source was inoculated at a dilution ratio of 1:1000 dilution in HS liquid medium supplemented with 0.1% DMSO or 20 μM of ES20 or ES20-1. Static cultivation was carried out in a 26° C. incubator, and agitated cultivation was carried out at 26° C. with shaking at 220 rpm. To isolate cellulose from pellicles, the pellicles were removed from liquid culture, washed several times with deionized water, and soaked in 0.1 M NaOH at 80° C. for 2 h. The pellicles were washed several times with deionized water to completely remove the alkali. The purified cellulose was dried at 60° C. for ˜1 day until a constant dry mass was reached.

[6] = tested on: Rhodobacter sphaeroidesin; test: Rhodobacter sphaeroidesin growth in overnight culture; type: cell-based, Rhodobacter sphaeroides; conditions: vs DMSO control media
Description: To test the effect of Endosidin20/Cellulosin in bacterial cell growth, we first grew Rhodobacter sphaeroidesin in the presence of Ensodin20/Cellulosin.

[7] = target: T1, GFP-CESA6c (central cytosolic domain of AtCESA6) (Arabidopsis thaliana, UniProt Q94JQ6); test: MST assay with GFP-CESA6c; type: binding; conditions: 100 nM GFP-CESA6c
T1 construct: made in house; host or cells: E. coli
Description: (§2) To obtain the central cytosolic domain of AtCESA6 for the MST assay, we inserted the GFP coding sequence into the SacI and PstI restriction enzyme sites of the pRSF-Duet-1 vector (Huang et al., 2020). The GFP coding sequence was amplified from the pUBN-GFP-DEST vector. The sequence encoding the central cytosolic domain of CESA6 (CESA6c) was amplified from Col-0 cDNA and fused with GFP at the C-terminus. CESA6c construct was used as a template for creating CESA6c^P595S construct by site-directed mutagenesis. Protein purification was performed as previously described (Huang et al., 2020).
(§3) MST assays were carried out using a Monolith NT.115 (NanoTemper) machine at the Chemical Genomics Facility at Purdue University. […] The ES20-1 was dissolved in DMSO, and the final concentration of DMSO was 5% (vol/vol). MST standard capillaries were used to load the samples into the MST instrument. Triplicate reactions were performed for each test. The MST data were processed using MO. Affinity Analysis Version 2.3 software.

[8] = target: T2, YFP-AtCESA6 cellulose synthase complexes (CSCs) in root epidermal cells (Arabidopsis thaliana, UniProt Q94JQ6); conditions: Huang et al., 2020; cited from earlier work
T2 construct: expressed in transfected cells; host or cells: transgenic Arabidopsis thaliana YFP-AtCESA6 seedlings (total protein extract for DARTS; root epidermal cells for imaging)

GFP-CESA6c^P595S = target: T3, GFP-CESA6c^P595S (Arabidopsis thaliana, UniProt Q94JQ6, P595S); test: MST assay with GFP-CESA6c^P595S; type: binding
T3 construct: We purified AtCESA6 central cytoplasmic domain carrying missense mutation P595S (CESA6c^P595S); made in house; host or cells: E. coli (inferred from the wild-type CESA6c construct that served as template)
Description: as §2, §3

[9] = tested on: AtCESA6 carrying missense mutations in prc1-1; conditions: Huang et al., 2020; cited from earlier work
[10] = 5 days static cultivation, vs DMSO

COc1ccc(C(=O)NC(=S)NNC(=O)c2ccccc2C)cc1 [ES20, Endosidin20]
K. xylinus cell growth inhibition (Komagataeibacter xylinus [1]; 20 μM and 50 μM): inhibit K. xylinus cell growth at both 20 μM and 50 μM concentrations | K. xylinus colony morphology (wrinkles radiating structures) (Komagataeibacter xylinus [1]; 20 μM): the wrinkles are not obvious | maize root growth inhibition (maize (Zea mays)): could inhibit the root growth | inhibition of Arabidopsis thaliana root growth (Arabidopsis Col-0 [2]): more than 50% | sensitivity of es20r1-es20r15 mutants to ES20 [3]: reduced sensitivity | rice root growth inhibition (rice (Oryza sativa)): could inhibit the root growth | crystalline cellulose content in hypocotyl cell wall (Arabidopsis Col-0 [4]; mean±SD, n=3): 109 ± 4 µg/mg | reduction of crystalline cellulose levels in the hypocotyl (Arabidopsis Col-0 [4]; vs DMSO): approximately 35% | size of cellulose clusters (Komagataeibacter xylinus [5]; 5 days agitated cultivation, vs DMSO): smaller | dry mass of cellulose from pellicles (Komagataeibacter xylinus [5]; 5 days static cultivation, mean±SD, n=9): 268 ± 139 mg/L | decrease of dry mass of cellulose from pellicles (Komagataeibacter xylinus [5]; [10]): ~45% | pellicle thickness (Komagataeibacter xylinus [5]; [10]): pellicles in cultures containing DMSO are thicker | growth of Rhodobacter sphaeroidesin [6]: significantly slower | interaction with CESA6c [7]: interacted | effect on CSC motility, density and localization [8]: reduces the motility and density of CSCs at the PM and induces their accumulation at the SmaCCs and Golgi | effect on delivery rate of CSCs to PM [8]: reduced the delivery rate of CSCs to PM | interaction with CESA6c^P595S (GFP-CESA6c^P595S): interacts | sensitivity of transgenic plants with AtCESA6 catalytic site mutations to ES20 [9]: also had reduced sensitivity
